Assay results published in patent US20250213736A1, “SCISSION-ENHANCED NUCLEAR IMAGING AND TREATMENT” (The General Hospital Corporation, priority 2022, published 2025).

Experiment: LCMS analysis of DOTA-TCO-NHS linker immolation after Tz treatment in PBS (pH 7.4)
Assay type: physicochemical
Details: PBS with tetrazine (Tz-amine) added; 100 μM DOTA linker treated with 10 mM Tz-amine, PBS pH 7.4, LCMS; read-out: kinetics of linker immolation T1/2
Experimental: FIG. 6A contains line plots showing LCMS analysis of DOTA-TCO-NHS with varying ratios of HK-Tz added in PBS (pH 7.4). DOTA-TCO-NHS was synthesized as described in FIG. 3C, Characterized by NMR and then subjected to Tz treatment. Aliquots of 100 μM DOTA linker were treated with 10 mM Tz-amine and analyzed by LCMS after 30 min and 3 hours to determine the percentage of intact linker remaining. Shown are the kinetics of linker immolation (T1/2 12 min).

CN(CC(=O)NCCCNC(=O)CCOCCOCCOCCOCCC(=O)ON1C(=O)CCC1=O)C(=O)OC1/C=C/C(OC(=O)N(C)CC(=O)NCCCNC(=O)CN2CCN(CC(=O)O)CCN(CC(=O)O)CCN(CC(=O)O)CC2)CCCC1 (stereo not shown) [DOTA-TCO-NHS]
half-life at 100 μM: 12 min
